Results as given in ChEMBL document CHEMBL1151745, “Identification of potent, selective, and metabolically stable peptide antagonists to the calcitonin gene-related peptide (CGRP) receptor” (J Med Chem, 2008).
Calls of active or inactive are those of the source. The calls are words filed in the database; no cut-off is given here. Where a SMILES comes first, the peptide text is derived from it. [ ]: non-standard residue; d: D form. Tpi = O=C(O)[C@@H]1Cc2c([nH]c3ccccc23)CN1; hArg = N=C(N)NCCCC[C@H](N)C(=O)O; Tic = O=C(O)[C@@H]1Cc2ccccc2CN1; Cit = NC(=O)NCCC[C@H](N)C(=O)O

These compounds were tested against Calcitonin gene-related peptide type 1 receptor (Homo sapiens) (UniProt Q16602) (assay: Agonist activity at human CGRP1 receptor in human SK-N-MC cells).
Chain of Calcitonin gene-related peptide type 1 receptor (Homo sapiens) (Q16602 whole entry, looked up): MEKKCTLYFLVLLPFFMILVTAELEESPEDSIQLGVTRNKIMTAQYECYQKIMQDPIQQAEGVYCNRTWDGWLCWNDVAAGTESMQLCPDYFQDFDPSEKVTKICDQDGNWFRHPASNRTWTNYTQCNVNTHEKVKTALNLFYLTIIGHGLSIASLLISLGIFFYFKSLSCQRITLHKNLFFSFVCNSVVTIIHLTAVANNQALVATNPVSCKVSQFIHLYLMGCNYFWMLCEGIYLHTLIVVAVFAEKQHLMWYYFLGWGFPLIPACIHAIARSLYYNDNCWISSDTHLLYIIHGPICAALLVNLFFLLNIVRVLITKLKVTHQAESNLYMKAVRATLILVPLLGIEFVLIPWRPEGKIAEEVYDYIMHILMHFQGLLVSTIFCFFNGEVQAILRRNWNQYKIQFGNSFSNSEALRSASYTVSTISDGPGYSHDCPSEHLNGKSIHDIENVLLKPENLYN

Row | Compound | Activity
1 | CC(=O)N[C@@H](Cc1c[nH]c2ccccc12)C(=O)N[C@H](C(=O)N[C@H](C(=O)N[C@@H](Cc1cnc[nH]1)C(=O)N[C@@H](CCCNC(N)=O)C(=O)N[C@@H](CC(C)C)C(=O)N[C@@H](C)C(=O)NCC(=O)N[C@@H](CC(C)C)C(=O)N[C@@H](CC(C)C)C(=O)N[C@@H](CO)C(=O)N[C@@H](CCCNC(N)=O)C(=O)N[C@@H](CO)C(=O)NCC(=O)NCC(=O)N[C@H](C(=O)N[C@H](C(=O)N[C@@H](CCCCNC(=N)N)C(=O)N[C@@H](CCCCN)C(=O)N[C@@H](CC(N)=O)C(=O)N[C@@H](Cc1ccccc1)C(=O)N[C@H](C(=O)N1C(C(=O)N[C@H](C(=O)N[C@@H](CC(=O)O)C(=O)N[C@H](C(=O)NCC(=O)N2C3CCCCC3C[C@H]2C(=O)N[C@@H](Cc2ccccc2)C(=O)N[C@@H](C)C(=O)N[C@@H](Cc2ccccc2)C(N)=O)C(C)C)[C@@H](C)O)CC2CCCCC21)C(C)C)C(C)C)C(C)C)[C@@H](C)O)C(C)C (stereo partly specified) | inactive
2 | CC(=O)N[C@@H](Cc1c[nH]c2ccccc12)C(=O)N[C@H](C(=O)N[C@H](C(=O)N[C@@H](Cc1cnc[nH]1)C(=O)N[C@@H](CCCNC(N)=O)C(=O)N[C@@H](CC(C)C)C(=O)N[C@@H](C)C(=O)NCC(=O)N[C@@H](CC(C)C)C(=O)N[C@@H](CC(C)C)C(=O)N[C@@H](CO)C(=O)N[C@@H](CCCNC(N)=O)C(=O)N[C@@H](CO)C(=O)NCC(=O)NCC(=O)N[C@H](C(=O)N[C@H](C(=O)N[C@@H](CCCCNC(=N)N)C(=O)N[C@@H](CCCCN)C(=O)N[C@@H](CC(N)=O)C(=O)N[C@@H](Cc1ccccc1)C(=O)N[C@H](C(=O)N1CCC[C@H]1C(=O)N[C@H](C(=O)N[C@@H](CC(=O)O)C(=O)N[C@H](C(=O)NCC(=O)N1CCC[C@H]1CC(=O)N[C@@H](Cc1ccccc1)C(=O)N[C@@H](C)C(=O)N[C@@H](Cc1ccccc1)C(N)=O)C(C)C)[C@@H](C)O)C(C)C)C(C)C)C(C)C)[C@@H](C)O)C(C)C | inactive
3 | CC(=O)N[C@@H](Cc1c[nH]c2ccccc12)C(=O)N[C@H](C(=O)N[C@H](C(=O)N[C@@H](Cc1cnc[nH]1)C(=O)N[C@@H](CCCNC(N)=O)C(=O)N[C@@H](CC(C)C)C(=O)N[C@@H](C)C(=O)NCC(=O)N[C@@H](CC(C)C)C(=O)N[C@@H](CC(C)C)C(=O)N[C@@H](CO)C(=O)N[C@@H](CCCNC(N)=O)C(=O)N[C@@H](CO)C(=O)NCC(=O)NCC(=O)N[C@H](C(=O)N[C@H](C(=O)N[C@@H](CCCCNC(=N)N)C(=O)N[C@@H](CCCCN)C(=O)N[C@@H](CC(N)=O)C(=O)N[C@@H](Cc1ccccc1)C(=O)N[C@H](C(=O)N1CCC[C@H]1C(=O)N[C@H](C(=O)N[C@@H](CC(=O)O)C(=O)N[C@H](C(=O)NCC(=O)NC(C)(C)C(=O)N[C@@H](Cc1ccccc1)C(=O)N[C@@H](C)C(=O)N[C@@H](Cc1ccccc1)C(N)=O)C(C)C)[C@@H](C)O)C(C)C)C(C)C)C(C)C)[C@@H](C)O)C(C)C | inactive
4 | CC(=O)N[C@@H](Cc1c[nH]c2ccccc12)C(=O)N[C@H](C(=O)N[C@H](C(=O)N[C@@H](Cc1cnc[nH]1)C(=O)N[C@@H](CCCNC(N)=O)C(=O)N[C@@H](CC(C)C)C(=O)N[C@@H](C)C(=O)NCC(=O)N[C@@H](CC(C)C)C(=O)N[C@@H](CC(C)C)C(=O)N[C@@H](CO)C(=O)N[C@@H](CCCNC(N)=O)C(=O)N[C@@H](CO)C(=O)NCC(=O)NCC(=O)N[C@H](C(=O)N[C@H](C(=O)N[C@@H](CCCCNC(=N)N)C(=O)N[C@@H](CCCCN)C(=O)N[C@@H](CC(N)=O)C(=O)N[C@@H](Cc1ccccc1)C(=O)N[C@H](C(=O)N1CCC[C@H]1C(=O)N[C@H](C(=O)N[C@@H](CC(=O)O)C(=O)N[C@H](C(=O)NCC(=O)N1CCC[C@H]1C(=O)N1Cc2ccccc2C[C@H]1C(=O)N[C@@H](C)C(=O)N[C@@H](Cc1ccccc1)C(N)=O)C(C)C)[C@@H](C)O)C(C)C)C(C)C)C(C)C)[C@@H](C)O)C(C)C (Ac-WVTH[Cit]LAGLLS[Cit]SGGVV[hArg]KNFVPTDVGP[Tic]AF-NH2) | inactive
5 | CC(=O)N[C@@H](Cc1c[nH]c2ccccc12)C(=O)N[C@H](C(=O)N[C@H](C(=O)N[C@@H](Cc1cnc[nH]1)C(=O)N[C@@H](CCCNC(N)=O)C(=O)N[C@@H](CC(C)C)C(=O)N[C@@H](C)C(=O)NCC(=O)N[C@@H](CC(C)C)C(=O)N[C@@H](CC(C)C)C(=O)N[C@@H](CO)C(=O)N[C@@H](CCCNC(N)=O)C(=O)N[C@@H](CO)C(=O)NCC(=O)NCC(=O)N[C@H](C(=O)N[C@H](C(=O)N[C@@H](CCCCNC(=N)N)C(=O)N[C@@H](CCCCN)C(=O)N[C@@H](CC(N)=O)C(=O)N[C@@H](Cc1ccccc1)C(=O)N[C@H](C(=O)N1CCC[C@H]1C(=O)N[C@H](C(=O)N[C@@H](CC(=O)O)C(=O)N[C@H](C(=O)NCC(=O)NC1(C(=O)N[C@@H](Cc2ccccc2)C(=O)N[C@@H](C)C(=O)N[C@@H](Cc2ccccc2)C(N)=O)CCNCC1)C(C)C)[C@@H](C)O)C(C)C)C(C)C)C(C)C)[C@@H](C)O)C(C)C | inactive
6 | CC(=O)N[C@@H](Cc1c[nH]c2ccccc12)C(=O)N[C@H](C(=O)N[C@H](C(=O)N[C@@H](Cc1cnc[nH]1)C(=O)N[C@@H](CCCNC(N)=O)C(=O)N[C@@H](CC(C)C)C(=O)N[C@@H](C)C(=O)NCC(=O)N[C@@H](CC(C)C)C(=O)N[C@@H](CC(C)C)C(=O)N[C@@H](CO)C(=O)N[C@@H](CCCNC(N)=O)C(=O)N[C@@H](CO)C(=O)NCC(=O)NCC(=O)N[C@H](C(=O)N[C@H](C(=O)N[C@@H](CCCCNC(=N)N)C(=O)N[C@@H](CCCCN)C(=O)N[C@@H](CC(N)=O)C(=O)N[C@@H](Cc1ccccc1)C(=O)N[C@H](C(=O)N1CCC[C@H]1C(=O)N[C@H](C(=O)N[C@@H](CC(=O)O)C(=O)N[C@H](C(=O)NCC(=O)N1CCC[C@H]1C(=O)N1Cc2[nH]c3ccccc3c2C[C@H]1C(=O)N[C@@H](C)C(=O)N[C@@H](Cc1ccccc1)C(N)=O)C(C)C)[C@@H](C)O)C(C)C)C(C)C)C(C)C)[C@@H](C)O)C(C)C (Ac-WVTH[Cit]LAGLLS[Cit]SGGVV[hArg]KNFVPTDVGP[Tpi]AF-NH2) | inactive
7 | CC(=O)N[C@@H](Cc1c[nH]c2ccccc12)C(=O)N[C@H](C(=O)N[C@H]1CCC(=O)NCCCC[C@@H](C(=O)NCC(=O)N[C@@H](CC(C)C)C(=O)N[C@@H](CC(C)C)C(=O)N[C@@H](CO)C(=O)N[C@@H](CCCNC(=N)N)C(=O)N[C@@H](CO)C(=O)NCC(=O)NCC(=O)N[C@H](C(=O)N[C@H](C(=O)N[C@@H](CCCNC(=N)N)C(=O)N[C@@H](CCCCN)C(=O)N[C@@H](CC(N)=O)C(=O)N[C@@H](Cc2ccccc2)C(=O)N[C@H](C(=O)N2CCC[C@H]2C(=O)N[C@H](C(=O)N[C@@H](CC(=O)O)C(=O)N[C@H](C(=O)NCC(=O)N2CCC[C@H]2C(=O)N[C@@H](Cc2ccccc2)C(=O)N[C@@H](C)C(=O)N[C@@H](Cc2ccccc2)C(N)=O)C(C)C)[C@@H](C)O)C(C)C)C(C)C)C(C)C)NC(=O)[C@H](CC(C)C)NC(=O)[C@H](CCCNC(=N)N)NC(=O)[C@H](Cc2cnc[nH]2)NC1=O)C(C)C | inactive
8 | CC(=O)N[C@H](C(=O)N[C@H](C(=O)N[C@@H](Cc1cnc[nH]1)C(=O)N[C@@H](CCCNC(=N)N)C(=O)N[C@@H](CC(C)C)C(=O)N[C@@H](C)C(=O)NCC(=O)N[C@@H](CC(C)C)C(=O)N[C@@H](CC(C)C)C(=O)N[C@@H](CO)C(=O)N[C@@H](CCCNC(=N)N)C(=O)N[C@@H](CO)C(=O)NCC(=O)NCC(=O)N[C@H](C(=O)N[C@H](C(=O)N[C@@H](CCCNC(=N)N)C(=O)N[C@@H](CCCCN)C(=O)N[C@@H](CC(N)=O)C(=O)N[C@@H](Cc1ccccc1)C(=O)N[C@H](C(=O)N1CCC[C@H]1C(=O)N[C@H](C(=O)N[C@@H](CC(=O)O)C(=O)N[C@H](C(=O)NCC(=O)N1CCC[C@H]1C(=O)N[C@@H](Cc1ccccc1)C(=O)N[C@@H](C)C(=O)N[C@@H](Cc1ccccc1)C(N)=O)C(C)C)[C@@H](C)O)C(C)C)C(C)C)C(C)C)[C@@H](C)O)C(C)C (Ac-VTHRLAGLLSRSGGVVRKNFVPTDVGPFAF-NH2) | inactive
9 | CC(=O)N[C@@H](Cc1c[nH]c2ccccc12)C(=O)N[C@H](C(=O)N[C@H](C(=O)N[C@@H](Cc1cnc[nH]1)C(=O)N[C@@H](CCCNC(N)=O)C(=O)N[C@@H](CC(C)C)C(=O)N[C@@H](C)C(=O)NCC(=O)N[C@@H](CC(C)C)C(=O)N[C@@H](CC(C)C)C(=O)N[C@@H](CO)C(=O)N[C@@H](CCCNC(N)=O)C(=O)N[C@@H](CO)C(=O)NCC(=O)NCC(=O)N[C@H](C(=O)N[C@H](C(=O)N[C@@H](CCCCNC(=N)N)C(=O)N[C@@H](CCCCN)C(=O)N[C@@H](CC(N)=O)C(=O)N[C@@H](Cc1ccccc1)C(=O)N[C@H](C(=O)N1CCC[C@H]1C(=O)N[C@H](C(=O)N[C@@H](CC(=O)O)C(=O)N[C@H](C(=O)NCC(=O)N1CSC[C@H]1C(=O)N[C@@H](Cc1ccccc1)C(=O)N[C@@H](C)C(=O)N[C@@H](Cc1ccccc1)C(N)=O)C(C)C)[C@@H](C)O)C(C)C)C(C)C)C(C)C)[C@@H](C)O)C(C)C | inactive
10 | CC(C)C[C@H](NC(=O)CNC(=O)[C@H](C)NC(=O)[C@H](CC(C)C)NC(=O)[C@H](CCCNC(=N)N)NC(=O)[C@H](Cc1cnc[nH]1)NC(=O)[C@@H](NC(=O)[C@@H](NC(=O)[C@@H](N)Cc1c[nH]c2ccccc12)C(C)C)[C@@H](C)O)C(=O)N[C@@H](CC(C)C)C(=O)N[C@@H](CO)C(=O)N[C@@H](CCCNC(=N)N)C(=O)N[C@@H](CO)C(=O)NCC(=O)NCC(=O)N[C@H](C(=O)N[C@H](C(=O)N[C@@H](CCCCN)C(=O)N[C@@H](CC(N)=O)C(=O)N[C@@H](CC(N)=O)C(=O)N[C@@H](Cc1ccccc1)C(=O)N[C@H](C(=O)N1CCC[C@H]1C(=O)N[C@H](C(=O)N[C@@H](CC(N)=O)C(=O)N[C@H](C(=O)NCC(=O)N[C@@H](CO)C(=O)N[C@@H](CCCCN)C(=O)N[C@@H](C)C(=O)N[C@@H](Cc1ccccc1)C(N)=O)C(C)C)[C@@H](C)O)C(C)C)C(C)C)C(C)C | inactive
11 | CC(=O)N[C@@H](Cc1c[nH]c2ccccc12)C(=O)N[C@H](C(=O)N[C@H](C(=O)N[C@@H](Cc1cnc[nH]1)C(=O)N[C@@H](CCCNC(N)=O)C(=O)N[C@@H](CC(C)C)C(=O)N[C@@H](C)C(=O)NCC(=O)N[C@@H](CC(C)C)C(=O)N[C@@H](CC(C)C)C(=O)N[C@@H](CO)C(=O)N[C@@H](CCCNC(N)=O)C(=O)N[C@@H](CO)C(=O)NCC(=O)NCC(=O)N[C@H](C(=O)N[C@H](C(=O)N[C@@H](CCCNC(=N)N)C(=O)N[C@@H](CCCCN)C(=O)N[C@@H](CC(N)=O)C(=O)N[C@@H](Cc1ccccc1)C(=O)N[C@H](C(=O)N1CCC[C@H]1C(=O)N[C@H](C(=O)N[C@@H](CC(=O)O)C(=O)N[C@H](C(=O)NCC(=O)N1C2CCCCC2C[C@H]1C(=O)N[C@@H](Cc1ccccc1)C(=O)N[C@@H](C)C(=O)N[C@@H](Cc1ccccc1)C(N)=O)C(C)C)[C@@H](C)O)C(C)C)C(C)C)C(C)C)[C@@H](C)O)C(C)C (stereo partly specified) | inactive
